Literature values, collected in the PKSmart pharmacokinetics tables (Seal et al. 2025).
*1 amine or outer side, *2 acyl side, *3 side chain or, on linkers, in order; H or OH if unused. Where a SMILES comes first, the peptide text is derived from it. Bridges are numbered along the chain shown (N, C = ends). [ ]: non-standard residue; d: D form. The star is where a group is joined. ξ: configuration not given here. X1 = O=C1CC(C(=O)[*:2])N([*:1])CC1CS[C@@H]1CN2CCC1CC2; ξThr(3R)(O-yl) = C[C@@H](O[*:3])C(N[*:1])C(=O)[*:2]; ξNMePhe(4-NMe2) = CNC(Cc1ccc(N(C)C)cc1)C(=O)O; Picolinoyl(3-OH) = O=C(c1ncccc1O)*; hArg = N=C(N)NCCCC[CH](N)C(=O)O; ξPhg = NC(C(=O)O)c1ccccc1; ξAbu = CCC(N)C(=O)O; ξP = O=C(O)C1CCCN1; Mpa = O=C(O)CCS

Experiment: Lombardo, Berellini, Obach 2018, Drug Metab Dispos 46:1466, doi 10.1124/dmd.118.082966
Conditions: human; for MRT / Vd / clearance / half-life: in vivo, iv; for fraction unbound: plasma

SMILES	MRT [h]	Vd [L/kg]	clearance [mL/min/kg]	half-life [h]	fraction unbound
CN1[C@@H]2C[C@@H](OC(=O)C(CO)c3ccccc3)C[C@H]1[C@@H]1O[C@@H]12 (stereo partly specified)	3.2				
CON=C(C(=O)NC1C(=O)N2C(C(=O)O)=C(CSc3nc(=O)c(O)nn3C)CS[C@H]12)c1csc(N)n1 (stereo partly specified)	9.6	0.12	0.22	7.6	0.1
CCCc1c2oc(C(=O)O)cc(=O)c2cc2c(=O)cc(C(=O)O)n(CC)c12	0.7	0.43	10.2	0.9	0.11
COc1ccc(/C=C\c2cc(OC)c(OC)c(OC)c2)cc1OP(=O)(O)O	0.3	0.11	5.86	0.47	0.23
Cc1[nH]c(=O)c(C#N)cc1-c1ccncc1	0.67	0.25	6.2	0.8	
O=C(O)CCCC[C@H]1CCSS1	0.13	0.11	13.4	0.21	
Cc1cc(=O)n(-c2ccccc2)[nH]1	2.65	0.23	1.42	2.36	0.89
C[C@@H](Cc1ccccc1)NC(=O)C(N)CCCCN (stereo partly specified)	0.6	0.6	17	1.2	
CCN(CC)CCN(Cc1ccc(-c2ccc(C(F)(F)F)cc2)cc1)C(=O)Cn1c(SCc2ccc(F)cc2)nc(=O)c2c1CCC2	48.1	11.9	4.11	40.9	
Nc1ccncc1	4.7	2.6	9.3	3.6	1
O[C@](CO[C@@H]1CN2CCC1CC2)(c1ccccc1)C1CCCC1	17.8	2.12	1.99	15.7	
Nc1nc2c(Cc3cccnc3)c[nH]c2c(=O)[nH]1	3.2	1.2	6.2	3	0.86
COc1ccccc1Oc1c(NS(=O)(=O)c2ccc(C)cn2)nc(-c2ccncc2)nc1OC	8.8	0.27	0.52	7.2	
O=C(O)C1C[C@@H](C2CCCCC2)CN1C(=O)CP(=O)(O)CCCCc1ccccc1 (stereo partly specified)	6.8	0.13	0.32	9.4	
C[C@H]1O[C@@H](n2cc(F)c(=O)[nH]c2=O)[C@H](O)[C@@H]1O	0.46	0.28	11	0.35	
C[C@@H](N/C(=N\c1ccncc1)NC#N)C(C)(C)C	3.2	1.1	5.68	2.5	0.6
COC1C(=O)C(C)C[C@H](C)/C=C/C=C/C=C(\C)[C@@H](OC)C[C@@H]2CC[C@@H](C)[C@@](O)(O2)C(=O)C(=O)N2CCCCC2C(=O)O[C@H]([C@H](C)C[C@@H]2CC[C@H](n3cnnn3)[C@H](OC)C2)CC(=O)C(C)=CC(C)[C@H]1O (stereo partly specified)	33	1.3	0.67	35	0.26
CC(C)OC(=O)CCC/C=C/C[C@@H]1[C@@H](CC[C@@H](O)CCc2ccccc2)[C@H](O)C[C@@H]1O			6.7	0.28	0.1
O=C1NCC2(CCN(CCc3ccccc3)CC2)O1	19	3	2.6	14	
CCC(=O)O[C@](Cc1ccccc1)(c1ccccc1)[C@H](C)CN(C)C	13	12	15	18	0.24
COc1ccc(C[C@@H]2c3cc(OC)c(OC)cc3CC[N@+]2(C)CCC(=O)OCCCCCOC(=O)CC[N@@+]2(C)CCc3cc(OC)c(OC)cc3[C@H]2Cc2ccc(OC)c(OC)c2)cc1OC	0.43	0.14	5.4	0.42	0.62

SMILES	MRT [h]	Vd [L/kg]	clearance [mL/min/kg]	half-life [h]	fraction unbound
C[C@H]1[C@H](C)CC[C@]2(C(=O)O)CC[C@@]3(C)C(=CC[C@@H]4[C@@]5(C)CC[C@H](O)C(C)(C)[C@@H]5CC[C@]43C)[C@H]12	2.34		3.87	4.8	
O=C1CCC(N2C(=O)c3ccccc3C2=O)C(=O)N1 (stereo unspecified)	4.3	0.95	3.4	4.7	0.4
C/C=C(\C)C(=O)O[C@H]1[C@H](OC(C)=O)[C@]2(CO)[C@H](O)C[C@]3(C)C(=CC[C@@H]4[C@@]5(C)CC[C@H](O[C@@H]6OC(C(=O)O)[C@@H](O[C@@H]7O[C@H](CO)[C@@H](O)[C@H](O)[C@H]7O)[C@H](O)[C@H]6O[C@@H]6O[C@H](CO)[C@@H](O)[C@H](O)[C@H]6O)[C@](C)(CO)[C@@H]5CC[C@]43C)[C@@H]2CC1(C)C (stereo partly specified)	2.85	0.28	1.65	2.4	
Clc1ccc(COC(Cn2ccnc2)c2ccc(Cl)cc2Cl)c(Cl)c1 (stereo unspecified)	12.6	7.14	9.48	19.8	0.08
CO[C@@H]1C[C@@](C)(O)Cc2cc3c(c(O)c21)C(=O)c1c(O)cc2c(c1C3=O)O[C@@H]1O[C@]2(C)[C@@H](O)[C@@H](N(C)C)[C@@H]1O	13.1	9.14	11.6	13.2	
NC(=O)CN1CC(O)CC1=O (stereo unspecified)	4.9	0.55	1.8	7.5	
COP(=O)(c1cc(C)cc(/C=C/C#N)c1)c1c(C(N)=O)[nH]c2ccc(Cl)c(F)c12 (stereo unspecified)	8.9	0.97	1.83	7.4	
CC(CN(C)C)CN1c2ccccc2CCc2ccccc21 (stereo unspecified)	17	16	16	23	0.051
Nc1ccc(O)c(C(=O)O)c1	0.59	0.33	9.3	0.61	0.39
CCc1c2c(nc3ccc(OC(=O)CCC(=O)Oc4c(C)c(C)c5c(c4C)CC[C@@](C)(CCC[C@H](C)CCC[C@H](C)CCCC(C)C)O5)cc13)-c1cc3c(c(=O)n1C2)COC(=O)[C@]3(O)CC	3.34	0.15	0.81	3.77	
c1cc2c(c(N3CCNCC3)c1)OCCO2	10.5	3.6	8	8.2	
C=CCC1=CC(C)C[C@H](C)C[C@H](OC)[C@H]2O[C@@](O)(C(=O)C(=O)N3CCCCC3C(=O)O[C@H](/C(C)=C/[C@@H]3CC[C@@H](O)[C@H](OC)C3)[C@H](C)[C@@H](O)CC1=O)[C@H](C)C[C@@H]2OC (stereo partly specified)	27	1.2	0.7	26	
CC(C)C(=O)OCC(=O)[C@]12O[C@@H](C3CCCCC3)O[C@@H]1C[C@@H]1[C@@H]3CC=C4CC(=O)C=C[C@]4(C)[C@H]3[C@@H](O)C[C@@]12C	1.45	2.9	33.3	1.04	0.01
COc1cccc2c1c(NS(=O)(=O)c1ccc(Cl)s1)nn2Cc1cccc(CNC(=O)C(C)(C)O)c1	5.43	1.65	5.1	13.5	
OC[C@@H](O)[C@@H](O)[C@H](O)[C@H](O)CO	3.5	0.24	1.2	4.7	
CN1CCN(CCCN2c3ccccc3Sc3ccc(Cl)cc32)CC1	23	22	16	9	
Cc1ccnc2c1NC(=O)c1cccnc1N2C1CC1	81	1.3	0.3	53	
COc1ccc([C@@H]2CNC(=O)C2)cc1OC1CCCC1	1.77	0.67	6.3	7	0.11
CC[C@H]1OC(=O)C(C)C(=O)C(C)[C@@H](O[C@@H]2O[C@H](C)C[C@H](N(C)C)[C@H]2O)[C@](C)(OC)CC(C)C(=O)C(C)[C@H]2N(CCCCn3cnc(-c4cccnc4)c3)C(=O)O[C@]12C (stereo partly specified)	3.6	3	14	12	0.41
CC(=O)NC(CO)C(=O)NC(CC(=O)O)C(=O)NC(CCCCN)C(=O)N1CCCC1C(=O)O (stereo unspecified) (Ac-SDKP-OH; configuration not given here)			18.7	0.08	
CNCCCC12CCC(c3ccccc31)c1ccccc12	54	45	14	51	0.11

SMILES	MRT [h]	Vd [L/kg]	clearance [mL/min/kg]	half-life [h]	fraction unbound
O=C(NCCNCC(O)COc1ccc(O)cc1)N1CCOCC1 (stereo unspecified)	3.6	0.64	3	7.7	
O=C(NC1CCN(CCCCC2(C(=O)NCC(F)(F)F)c3ccccc3-c3ccccc32)CC1)c1ccccc1-c1ccc(C(F)(F)F)cc1	31.2	16.3	8.7	39.7	0.002
CCN(CC)CCN1C(=O)c2c(c3c4cccc(Cl)c4n([C@@H]4O[C@H](CO)[C@@H](OC)[C@H](O)[C@H]4O)c3c3[nH]c4c(Cl)cccc4c23)C1=O	45.4	8.9	3.13	48.9	
CC[C@H]1OC(=O)C(C)[C@@H](O[C@H]2C[C@@](C)(OC)[C@@H](O)[C@H](C)O2)[C@H](C)[C@@H](O[C@@H]2O[C@H](C)C[C@H](N(C)C)[C@H]2O)[C@](C)(OC)CC(C)C(=O)C(C)[C@@H](O)[C@]1(C)O (stereo partly specified)	3.4	1.5	7.3	2.8	
CNC(=O)c1c(I)c(NC(C)=O)c(I)c(C(=O)O)c1I	1.2	0.17	2.4	1.3	
CCOc1ncc(S(=O)(=O)N2CCN(CC)CC2)cc1-c1nc(=O)c2nn(CCOC)c(CC)c2[nH]1	2.8	2.4	14.3	4	
Nc1nc(=O)c2nc(CNc3ccc(C(=O)NC(CCC(=O)O)C(=O)O)cc3)cnc2[nH]1 (stereo unspecified)	3.1	9.7	52	2.6	0.5
Cc1cc(-n2cccc2)c(S(C)(=O)=O)cc1C(=O)NC(=N)N	2.3	1.1	8.2	2.2	
COC(=O)C(c1ccccc1Cl)N1CCc2sccc2C1 (stereo unspecified)	1.42	2.01	23.6	5.06	0.02
CN1CC[C@H](c2c(O)cc(O)c3c(=O)cc(-c4ccccc4Cl)oc23)[C@H](O)C1	4	1.5	6.1	5.2	0.06
CC(C)[N@+]1(C)[C@H]2CC[C@H]1C[C@H](OC(=O)C(c1ccccc1)C1CCCC1)C2 (stereo partly specified)	2.48	1.25	8.41	3.3	
CC(C)N(CC[C@H](c1ccccc1)c1cc(CO)ccc1O)C(C)C		2.41			0.5
CC(=O)C(C#N)C(=O)Nc1ccc(C(F)(F)F)cc1 (stereo unspecified)	367	0.16	0.007	350	
C[C@H]1COc2c(N3CCN(C)CC3)c(F)c(N)c3c(=O)c(C(=O)O)cn1c23	18.3	2.42	2.2	20.1	0.82
C[C@@H]1C[C@@H]2[C@@H]3CC=C4CC(=O)C=C[C@]4(C)C3=CC[C@]2(C)C1C(=O)CN1CCN(c2cc(N3CCCC3)nc(N3CCCC3)n2)CC1 (stereo partly specified)	23.2	9.8	7	49.3	0.006
N=C(N)NCCCCC1NC(=O)CCSSCC(C(N)=O)NC(=O)C2CCCN2C(=O)C(Cc2c[nH]c3ccccc23)NC(=O)C(CC(=O)O)NC(=O)CNC1=O (stereo unspecified) ([Mpa][hArg]GDWPC-NH2; disulfide 1-7; configuration not given here)	2.4	0.17	1.2	4.2	0.75
CC=CC1=C(C(=O)O)N2C(=O)C(NC(=O)C(N)c3ccc(O)cc3)[C@H]2SC1 (stereo partly specified)	1.2	0.21	2.9	1.2	
Oc1ccc2c(c1)[C@@]13CCCC[C@@]1(O)[C@@H](C2)N(CC1CCC1)CC3	5.3	12	41	4.8	0.17
O=C(O)CCCc1ccc(N(CCCl)CCCl)cc1	1.5	0.26	2.8	1.1	
CCC1NC(=O)C(NC(=O)c2ncccc2O)[C@@H](C)OC(=O)C(c2ccccc2)NC(=O)C2CC(=O)C(CS[C@@H]3CN4CCC3CC4)CN2C(=O)C(Cc2ccc(N(C)C)cc2)N(C)C(=O)C2CCCN2C1=O (stereo partly drawn) ({Picolinoyl(3-OH)}-[ξThr(3R)(O-yl)][ξAbu][ξP][ξNMePhe(4-NMe2)][X1][ξPhg]; ester 1-C)	0.7	0.67	16	0.87	0.34
